# Measured values from ChEMBL document CHEMBL6182864, “Design, synthesis and biological evaluation of 3-amino-6-(2-hydroxyphenyl)pyridazin-4-aryl derivatives as SMARCA2/4 degraders” (Eur J Med Chem, 2025).
# The source made the active and inactive calls. No cut-off for these calls is given here.
# Tests used:
# MOLM-13 [1] = experiment: cells; settings: Homo sapiens, MOLM-13, 72 h
# MV4-11 [2] = experiment: cells; settings: Homo sapiens, MV4-11, 72 h
# MOLM-13 [3] = experiment: Induction of apoptosis in human MOLM-13 cells assessed as necrotic cells at 100 nM measured after 72 hrs by Annexin-V-FITC/propidium iodide staining based flow cytometry (reference value: 0.28%); format: functional
# MOLM-13 [4] = experiment: Induction of apoptosis in human MOLM-13 cells assessed as viable cells at 300 nM measured after 72 hrs by Annexin-V-FITC/propidium iodide staining based flow cytometry (reference value: 90.28%); format: functional; settings: read-out: Activity
# MV4-11 [5] = experiment: Induction of apoptosis in human MV4-11 cells assessed as early apoptotic cells at 1000 nM measured after 72 hrs by Annexin-V-FITC/propidium iodide staining based flow cytometry (reference value: 9.32%); format: functional
# MOLM-13 [6] = experiment: Induction of apoptosis in human MOLM-13 cells assessed as early apoptotic cells at 1000 nM measured after 72 hrs by Annexin-V-FITC/propidium iodide staining based flow cytometry (reference value: 5.57%); format: functional
# MOLM-13 [7] = experiment: Induction of apoptosis in human MOLM-13 cells assessed as necrotic cells at 1000 nM measured after 72 hrs by Annexin-V-FITC/propidium iodide staining based flow cytometry (reference value: 0.28%); format: functional
# MOLM-13 [8] = experiment: Induction of apoptosis in human MOLM-13 cells assessed as necrotic cells at 300 nM measured after 72 hrs by Annexin-V-FITC/propidium iodide staining based flow cytometry (reference value: 0.28%); format: functional
# MOLM-13 [9] = experiment: Induction of apoptosis in human MOLM-13 cells assessed as late apoptotic cells at 1000 nM measured after 72 hrs by Annexin-V-FITC/propidium iodide staining based flow cytometry (reference value: 3.87%); format: functional
# MV4-11 [10] = experiment: Induction of apoptosis in human MV4-11 cells assessed as necrotic cells at 100 nM measured after 72 hrs by Annexin-V-FITC/propidium iodide staining based flow cytometry (reference value: 0.1%); format: functional
# MV4-11 [11] = experiment: Induction of apoptosis in human MV4-11 cells assessed as early apoptotic cells at 300 nM measured after 72 hrs by Annexin-V-FITC/propidium iodide staining based flow cytometry (reference value: 9.32%); format: functional
# MOLM-13 [12] = experiment: Induction of apoptosis in human MOLM-13 cells assessed as late apoptotic cells at 300 nM measured after 72 hrs by Annexin-V-FITC/propidium iodide staining based flow cytometry (reference value: 3.87%); format: functional
# MV4-11 [13] = experiment: Induction of apoptosis in human MV4-11 cells assessed as viable cells at 300 nM measured after 72 hrs by Annexin-V-FITC/propidium iodide staining based flow cytometry (reference value: 89.49%); format: functional; settings: read-out: Activity
# MOLM-13 [14] = experiment: Induction of apoptosis in human MOLM-13 cells assessed as viable cells at 100 nM measured after 72 hrs by Annexin-V-FITC/propidium iodide staining based flow cytometry (reference value: 90.28%); format: functional; settings: read-out: Activity
# MV4-11 [15] = experiment: Induction of apoptosis in human MV4-11 cells assessed as viable cells at 100 nM measured after 72 hrs by Annexin-V-FITC/propidium iodide staining based flow cytometry (reference value: 89.49%); format: functional; settings: read-out: Activity
# MV4-11 [16] = experiment: Induction of apoptosis in human MV4-11 cells assessed as late apoptotic cells at 300 nM measured after 72 hrs by Annexin-V-FITC/propidium iodide staining based flow cytometry (reference value: 1.09%); format: functional
# MV4-11 [17] = experiment: Induction of apoptosis in human MV4-11 cells assessed as early apoptotic cells at 100 nM measured after 72 hrs by Annexin-V-FITC/propidium iodide staining based flow cytometry (reference value: 9.32%); format: functional
# MOLM-13 [18] = experiment: Induction of apoptosis in human MOLM-13 cells assessed as late apoptotic cells at 100 nM measured after 72 hrs by Annexin-V-FITC/propidium iodide staining based flow cytometry (reference value: 3.87%); format: functional
# MOLM-13 [19] = experiment: Induction of apoptosis in human MOLM-13 cells assessed as early apoptotic cells at 100 nM measured after 72 hrs by Annexin-V-FITC/propidium iodide staining based flow cytometry (reference value: 5.57%); format: functional
# MV4-11 [20] = experiment: Induction of apoptosis in human MV4-11 cells assessed as late apoptotic cells at 1000 nM measured after 72 hrs by Annexin-V-FITC/propidium iodide staining based flow cytometry (reference value: 1.09%); format: functional
# MOLM-13 [21] = experiment: Induction of apoptosis in human MOLM-13 cells assessed as early apoptotic cells at 300 nM measured after 72 hrs by Annexin-V-FITC/propidium iodide staining based flow cytometry (reference value: 5.57%); format: functional
# MV4-11 [22] = experiment: Induction of apoptosis in human MV4-11 cells assessed as viable cells at 1000 nM measured after 72 hrs by Annexin-V-FITC/propidium iodide staining based flow cytometry (reference value: 89.49%); format: functional; settings: read-out: Activity
# MV4-11 [23] = experiment: Induction of apoptosis in human MV4-11 cells assessed as necrotic cells at 1000 nM measured after 72 hrs by Annexin-V-FITC/propidium iodide staining based flow cytometry (reference value: 0.1%); format: functional
# MV4-11 [24] = experiment: Induction of apoptosis in human MV4-11 cells assessed as late apoptotic cells at 100 nM measured after 72 hrs by Annexin-V-FITC/propidium iodide staining based flow cytometry (reference value: 1.09%); format: functional
# MOLM-13 [25] = experiment: Induction of apoptosis in human MOLM-13 cells assessed as viable cells at 1000 nM measured after 72 hrs by Annexin-V-FITC/propidium iodide staining based flow cytometry (reference value: 90.28%); format: functional; settings: read-out: Activity
# MV4-11 [26] = experiment: Induction of apoptosis in human MV4-11 cells assessed as necrotic cells at 300 nM measured after 72 hrs by Annexin-V-FITC/propidium iodide staining based flow cytometry (reference value: 0.1%); format: functional
# MOLM-13 [27] = experiment: Induction of SMARCA4 degradation in human MOLM-13 cells at 10 uM measured after 72 hrs by Western blotting analysis; format: cell-based
# MOLM-13 [28] = experiment: Induction of SMARCA2 degradation in human MOLM-13 cells at 10 uM measured after 72 hrs by Western blotting analysis; format: cell-based
compound,measurement,setting,value
Cc1ncsc1-c1ccc([C@H](C)NC(=O)[C@@H]2C[C@@H](O)CN2C(=O)[C@@H](NC(=O)c2ccc(-c3cc(-c4ccccc4O)nnc3N)cc2)C(C)(C)C)cc1,IC50,MOLM-13 [1],> 10 µM
same,IC50,MV4-11 [2],> 10 µM
Cc1ncsc1-c1ccc([C@H](C)NC(=O)[C@@H]2C[C@@H](O)CN2C(=O)[C@@H](NC(=O)CN2CCN(c3cc(-c4ccccc4O)nnc3N)CC2)C(C)(C)C)cc1,Activity,MOLM-13 [3],0.25%
same,viability at 0.3 µM,MOLM-13 [4],21.8%
same,Activity,MV4-11 [5],56.45%
same,Activity,MOLM-13 [6],58.07%
same,Activity,MOLM-13 [7],0.28%
same,Activity,MOLM-13 [8],0.31%
same,Activity,MOLM-13 [9],27.77%
same,Activity,MV4-11 [10],1.43%
same,Activity,MV4-11 [11],52.83%
same,Activity,MOLM-13 [12],15.85%
same,viability at 0.3 µM,MV4-11 [13],19.1%
same,viability at 0.1 µM,MOLM-13 [14],53.7%
same,viability at 0.1 µM,MV4-11 [15],24%
same,Activity,MV4-11 [16],26.43%
same,Activity,MV4-11 [17],52.03%
same,Activity,MOLM-13 [18],6.71%
same,Activity,MOLM-13 [19],39.38%
same,Activity,MV4-11 [20],24.02%
same,Activity,MOLM-13 [21],62.09%
same,viability at 1 µM,MV4-11 [22],18.5%
same,Activity,MV4-11 [23],1.01%
same,Activity,MV4-11 [24],22.53%
same,viability at 1 µM,MOLM-13 [25],13.9%
same,Activity,MV4-11 [26],1.63%
Cc1ncsc1-c1ccc(CNC(=O)[C@@H]2C[C@@H](O)CN2C(=O)[C@@H](NC(=O)C2(c3ccc(-c4cc(-c5ccccc5O)nnc4N)cc3)CC2)C(C)(C)C)cc1,IC50,MOLM-13 [1],0.26 µM
same,IC50,MV4-11 [2],0.03 µM
Cc1ncsc1-c1ccc(CNC(=O)[C@@H]2C[C@@H](O)CN2C(=O)[C@@H](NC(=O)CCCc2ccc(-c3cc(-c4ccccc4O)nnc3N)cc2)C(C)(C)C)cc1,IC50,MOLM-13 [1],1.45 µM
same,IC50,MV4-11 [2],0.02 µM
Cc1ncsc1-c1ccc(CNC(=O)[C@@H]2C[C@@H](O)CN2C(=O)[C@@H](NC(=O)CCc2ccc(-c3cc(-c4ccccc4O)nnc3N)cc2)C(C)(C)C)cc1,IC50,MOLM-13 [1],3.87 µM
same,IC50,MV4-11 [2],2.14 µM
Cc1ncsc1-c1ccc(CNC(=O)[C@@H]2C[C@@H](O)CN2C(=O)[C@@H](NC(=O)CSc2ccc(-c3cc(-c4ccccc4O)nnc3N)cc2)C(C)(C)C)cc1,IC50,MOLM-13 [1],7.78 µM
same,IC50,MV4-11 [2],5.77 µM
Cc1ncsc1-c1ccc([C@H](C)NC(=O)[C@@H]2C[C@@H](O)CN2C(=O)[C@@H](NCc2ccc(-c3cc(-c4ccccc4O)nnc3N)cc2)C(C)(C)C)cc1,IC50,MOLM-13 [1],6.85 µM
same,IC50,MV4-11 [2],3.88 µM
Cc1ncsc1-c1ccc([C@H](C)NC(=O)[C@@H]2C[C@@H](O)CN2C(=O)[C@@H](NC(=O)COc2ccc(-c3cc(-c4ccccc4O)nnc3N)cc2)C(C)(C)C)cc1,IC50,MOLM-13 [1],0.46 µM
same,IC50,MV4-11 [2],0.12 µM
Cc1ncsc1-c1ccc(CNC(=O)[C@@H]2C[C@@H](O)CN2C(=O)[C@@H](NC(=O)COc2ccc(-c3cc(-c4ccccc4O)nnc3N)cc2)C(C)(C)C)cc1,IC50,MOLM-13 [1],0.85 µM
same,IC50,MV4-11 [2],0.3 µM
NS(=O)(=O)OC[C@@H]1C[C@@H](n2ccc3c(N[C@H]4CCc5ccccc54)ncnc32)C[C@@H]1O,Activity,MOLM-13 [27],Active
same,Activity,MOLM-13 [28],Active
Cc1ncsc1-c1ccc(CNC(=O)[C@@H]2C[C@@H](O)CN2C(=O)[C@@H](NC(=O)c2ccc(-c3cc(-c4ccccc4O)nnc3N)cc2)C(C)(C)C)cc1,IC50,MOLM-13 [1],9.61 µM
same,IC50,MV4-11 [2],5.07 µM
Cc1ncsc1-c1ccc([C@H](C)NC(=O)[C@@H]2C[C@@H](O)CN2C(=O)[C@@H](NC(=O)CSc2ccc(-c3cc(-c4ccccc4O)nnc3N)cc2)C(C)(C)C)cc1,IC50,MOLM-13 [1],5.1 µM
same,IC50,MV4-11 [2],5.75 µM
Cc1ncsc1-c1ccc([C@H](C)NC(=O)[C@@H]2C[C@@H](O)CN2C(=O)[C@@H](NC(=O)CCCc2ccc(-c3cc(-c4ccccc4O)nnc3N)cc2)C(C)(C)C)cc1,IC50,MOLM-13 [1],0.12 µM
same,IC50,MV4-11 [2],0.34 µM
CC(C)C[C@H](NC(=O)[C@H](Cc1ccccc1)NC(=O)c1cnccn1)B(O)O,Activity,MOLM-13 [27],Active
same,Activity,MOLM-13 [28],Active
Cc1ncsc1-c1ccc([C@H](C)NC(=O)[C@@H]2C[C@@H](O)CN2C(=O)[C@@H](NC(=O)CCc2ccc(-c3cc(-c4ccccc4O)nnc3N)cc2)C(C)(C)C)cc1,IC50,MOLM-13 [1],8.73 µM
same,IC50,MV4-11 [2],3.11 µM
Cc1ncsc1-c1ccc(CNC(=O)[C@@H]2C[C@@H](O)CN2C(=O)[C@@H](NC(=O)Cc2ccc(-c3cc(-c4ccccc4O)nnc3N)cc2)C(C)(C)C)cc1,IC50,MOLM-13 [1],2.73 µM
same,IC50,MV4-11 [2],0.71 µM
Cc1ncsc1-c1ccc([C@H](C)NC(=O)[C@@H]2C[C@@H](O)CN2C(=O)[C@@H](NC(=O)Cc2ccc(-c3cc(-c4ccccc4O)nnc3N)cc2)C(C)(C)C)cc1,IC50,MOLM-13 [1],3.82 µM
same,IC50,MV4-11 [2],0.24 µM
Cc1ncsc1-c1ccc(CNC(=O)[C@@H]2C[C@@H](O)CN2C(=O)[C@@H](NCc2ccc(-c3cc(-c4ccccc4O)nnc3N)cc2)C(C)(C)C)cc1,IC50,MOLM-13 [1],4.67 µM
same,IC50,MV4-11 [2],4.78 µM
